The values that follow come from patent US20250195498A1, “INHIBITOR OF CELLULAR PURINE NUCLEOTIDE SALVAGE PATHWAY ENZYME FOR USE IN THE TREATMENT AND/OR PREVENTION OF HELICOBACTER PYLORI INFECTION AND/OR DISEASE ASSOCIATED WITH SUCH INFECTION AND PHARMACEUTICAL COMPOSITION COMPRISING THE SAME” (UNIWERSYTET WARSZAWSKI, priority 2022, published 2025).

Converted amounts (≈) assume the structure as drawn. “And” between values parts separate entries of the source, which are not always exact repeats. Equal values may be shown once. Read-outs that look alike come from different tables or passages of the source.

Type in all cases: cell-based, Helicobacter pylori
The subject of test [1] is H. pylori strain P12. The experiment in a line: Growth curve method / MIC, strain P12. The settings on record: Helicobacter pylori. The protocol: (§1) The representative PNP inhibitor from H. pylori included in this study was immucillin A. The experiment was conducted using the growth curve method (two-fold serial dilutions in liquid medium). The tested H. pylori strains were cultured in Petri dishes with BHI solid medium supplemented with 10% FBS and 1% H. pylori Selective Supplement antibiotic kit, in anaerostats under microaerophilic conditions (5% 02, 10% CO2, 85% N2) at 37° C. for 3 days. Liquid culture of H. pylori was conducted overnight with shaking at 37° C. under microaerophilic conditions in BHI medium supplemented with 10% FBS and 1% H. pylori Selective Supplement antibiotic kit. Subsequently, for the essential experiment of determining the minimum inhibitory concentration (MIC), double strengthened liquid BHI medium was prepared, that is, supplemented with 20% FBS and a 2% set of H. pylori Selective Supplement antibiotics.
(§2) Bacterial proliferation inhibition experiments were carried out in 24-deep-well 2 ml flat-bottomed plates at a solution volume per well of 0.5 ml. In a single well, double strengthened (relative to the concentration planned for testing) solutions of the test inhibitor and double strengthened liquid BHI medium inoculated with H. pylori (10^4-10^5 CFU/ml in the final volume in the well, corresponding to the optical density of the culture OD600=0.05) were mixed together in a 1:1 ratio.
(§3) Kanamycin at a concentration of 25 μg/ml (Irie et al., 1997) was used as a positive control, while Mili-Q deionized water and BHI medium not inoculated with bacteria were used as negative controls. Plates were shaken at 37° C., under microaerophilic conditions. […] After 24 hours, the OD600 of samples containing the negative control, i.e. with Mili-Q deionized water, was about 1.2-1.4, corresponding to a bacterial concentration of about […].
(§4) In addition, the method proposed by Knezevic et al. (2018) was used to check whether the observed OD600 was from live bacterial cells. For this purpose, an equal volume of Christensen's double strength urea broth (that is, containing twice the concentration of all components) was added to the wells after incubation, and the plates were additionally incubated for 4 hours in an oxygen atmosphere at 37° C. During incubation, in wells with urease produced by live bacteria, urea is converted to ammonia and carbon dioxide, changing the pH of the solution and thus the colour of the phenol red indicator contained in the medium (from orange to purple).
(§5) All experiments were performed in triplicate.
(§6) Inhibition by PLP and its metabolic precursors of the growth of H. pylori strains: 26695, N6 and P12 in culture was investigated using the growth curve method as described in Example 3. From these experiments, the minimum inhibitory concentration was determined as the lowest concentration of a compound that inhibits the visible growth of the bacteria, compared to growth in control samples without the tested compounds. All experiments were carried out in triplicate.

The subject of test [2] is H. pylori strain M91 (MTZ + CLR resistant). The experiment in a line: Growth curve method / MIC, resistant strain M91. To be noted: Helicobacter pylori, strain M91, MTZ + CLR resistant. The protocol:
as §1, §2, §3, §4, §5
(§7) The antibacterial activity of two compounds, mefloquine (in the form of hydrochloride) and quinine, described in the literature as potent in vitro inhibitors of the PNP enzyme from Plasmodium falciparum (Dziekan et al., 2019), was tested. Using a two-fold serial dilution method in liquid medium (as described in Example 3), the MIC values for mefloquine and quinine were determined against clinical H. pylori strains resistant to MTZ, CLR and MTZ+CLR (M26, M91, M92 and M93), as well as the reference H. pylori strain 26695. Four clinical H. pylori strains isolated from adults, from primary infections (the subjects had never previously been treated against H. pylori infection) were tested. These strains come from the collection of the Department of Microbiology of the Medical University of Wroclaw and were obtained due to collaboration with Prof. Grażyna Gościniak, MD, PhD. The tested compounds belong to organic substances and are soluble in DMSO. The maximum tested concentration of quinine in H. pylori culture was 0.56 mM, and that of mefloquine was 2.25 mM. […] On each occasion, the effect of DMSO alone on the growth of the H. pylori strains tested was also checked. […] Kanamycin was used as a positive control and Mili-Q deionised water as a negative control. All experiments were carried out in triplicate. […]

In test [3] the test system is H. pylori strain M92 (CLR resistant). Kind of test: Growth curve method / MIC, resistant strain M92. The settings on record: Helicobacter pylori, strain M92, CLR resistant. The method, then: as §1, §2, §3, §4, §5, §7
Test [4] concerns H. pylori strain M26 (MTZ + CLR resistant). Kind of test: Growth curve method / MIC, resistant strain M26. The settings on record: Helicobacter pylori, strain M26, MTZ + CLR resistant. The protocol:
as §1, §2, §3, §4, §5, §7

The subject of test [5] is H. pylori strain N6. The experiment in a line: Growth curve method / MIC, strain N6. The settings on record: Helicobacter pylori. The protocol: as §1, §2, §3, §4, §5, §6
Test [6] concerns H. pylori strain 26695. Kind of test: Growth curve method / MIC in liquid culture, strain 26695. To be noted: Helicobacter pylori. In a few lines:
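Two-fold serial dilutions in BHI liquid medium with 10% FBS and 1% H. pylori Selective Supplement, inoculated at 10^4-10^5 CFU/ml (OD600=0.05); shaken 24 h at 37° C. under microaerophilic conditions (5% O2, 10% CO2, 85% N2). MIC from OD600 growth; viability confirmed by 4 h urease/phenol red colour change; triplicate.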

Test [7] relates to H. pylori strain M93 (MTZ resistant). Kind of test: Growth curve method / MIC, resistant strain M93. To be noted: Helicobacter pylori, strain M93, MTZ resistant. The method, then: as §1, §2, §3, §4, §5, §7
Where [8] appears, read: strain N6, wild-type, read-out: MIC (Table 7).
The mark [9] stands for this setting: strain 26695, wild-type, read-out: MIC (Table 7).

As usually defined, the MIC is the lowest concentration found to suppress growth. On to `Cc1ncc(CO)c(C=O)c1O.Cl` [PI-h, pyridoxal hydrochloride], for which the MIC in test [1] (P12, read-out: MIC (Table 7)) was 2.5 µM; in test [1] (strain P12, read-out: MIC), 509 µg/mL and 2500 µM; in test [2] (read-out: MIC) it was 255 µg/mL; in test [2] (read-out: MIC (Table 7)), 1.25 µM; in test [3] (read-out: MIC) it was 509 µg/mL and 2500 µM; in test [3] (read-out: MIC (Table 7)), 2.5 µM. The MIC was 255 µg/mL and 1250 µM in test [4] (read-out: MIC); 1.25 µM in test [4] (read-out: MIC (Table 7)); 2.5 µM in test [5] (setting [8]); 509 µg/mL and 2500 µM in test [5] (strain N6, read-out: MIC); 2.5 µM in test [6] (setting [9]); 509 µg/mL and 2500 µM in test [6] (strain 26695, read-out: MIC). Moreover, the MIC was 255 µg/mL and 1250 µM in test [7] (read-out: MIC); 1.25 µM in test [7] (read-out: MIC (Table 7)).

For the molecule `Cc1ncc(COP(=O)(O)O)c(C=O)c1O` [PLP, pyridoxal 5′-phosphate], the MIC is 2.5 µM (≈ 0.618 µg/mL) in test [1] (P12, read-out: MIC (Table 7)); 618 µg/mL and 2500 µM in test [1] (strain P12, read-out: MIC); 309 to 618 µg/mL in test [2] (read-out: MIC); 1.25 to 2.5 µM in test [2] (read-out: MIC (Table 7)); 309 to 618 µg/mL in test [3] (read-out: MIC); 1.25 to 2.5 µM in test [3] (read-out: MIC (Table 7)). Also, the MIC is 309 µg/mL and 1250 µM in test [4] (read-out: MIC); 1.25 µM in test [4] (read-out: MIC (Table 7)); 2.5 µM (≈ 0.618 µg/mL) in test [5] (setting [8]); 618 µg/mL and 2500 µM in test [5] (strain N6, read-out: MIC); 2.5 µM (≈ 0.618 µg/mL) in test [6] (setting [9]); 618 µg/mL and 2500 µM in test [6] (strain 26695, read-out: MIC). Also, the MIC in test [7] (read-out: MIC) is 309 µg/mL and 1250 µM; in test [7] (read-out: MIC (Table 7)) it was 1.25 µM (≈ 0.309 µg/mL).
